Source: US20250223626A1, “METHODS OF DIAGNOSING IBS-D AND SELECTION OF IBS-D TREATMENT” (priority 2022, published 2025)
“Also recorded” adds a separate entry of the source.

Tests used:
[1] = system: Methanobrevibacter smithii; conditions: rats on HFD, gavaged 10 days with 1.5 mg/ml, compared to controls (water)
Method: (§1) Therefore, HFD was used to assess the effects of persistent M. smithii elevation on stool consistency (stool wet weights). Sprague-Dawley rats were placed on a HFD (60% energy from fat [D12492; Research Diets, New Brunswick, NJ]) for 7 weeks. […] Stool collections were performed at baseline, after 7 weeks on HFD, and after the 10-day lovastatin/control treatments. Stool wet weights were determined. Stool and small bowel DNAs were extracted at euthanasia and the absolute abundance of M. smithii was determined by qPCR as described previously.

[2] = rats on HFD, 10 days of treatment, compared to controls on HFD (P=0.07)
Method: as §1

SMILES	M. smithii absolute load in the small bowel [1]	stool consistency (stool wet weight) [2]
CC[C@H](C)C(=O)O[C@H]1C[C@@H](C)C=C2C=C[C@H](C)[C@H](CC[C@@H]3C[C@@H](O)CC(=O)O3)[C@H]21 [lovastatin lactone]	decreased; also recorded: reduction	normalization
CC[C@H](C)C(=O)O[C@H]1C[C@@H](C)C=C2C=C[C@H](C)[C@H](CC[C@@H](O)C[C@@H](O)CC(=O)O)[C@H]21 [lovastatin hydroxyacid]		normalization
